# Assay results from patent publication US20230129866A1 (PureTech LYT 100, Inc., priority 2020, published 2023).
# Like-named read-outs stand apart in the source and are kept apart here.
# Assays:
# [1] = 200 mg SD-559 (pirfenidone) BID, Huang et al.; in ng/mL; cited from earlier work
# [2] = 91-day repeat dose oral toxicity and toxicokinetics study in rats; conditions: for Ratio of exposure (AUC), Group 4 (LYT-100 at 750 mg/kg) analyte / Group 5 (SD-559 at 750 mg/kg) analyte: LYT-100/SD-559, SD-790/SD-788, SD-1051/SD-1050, SD-789 Group 4/SD-789 Group 5
# [3] = Single 801 mg dose, double-blinded, cross-over study of LYT-100 vs pirfenidone in healthy volunteers (PK and safety); conditions: for Cmax (ng/mL), Mean / AUC0-t (hr*ng/mL), Mean / tmax (hr), Median / % AUC extrap, Mean / AUC(inf) (hr*ng/mL), Mean / Kel (1/hr), Mean / t1/2 (hr), Mean: fed; for Cmax (ng/mL), Mean: healthy volunteers; for Cmax (ng/mL), Mean / AUC0-t (hr*ng/mL), Mean / tmax (hr), Median: n = 24
# Description: Following screening, eligible healthy volunteer subjects were admitted to a single clinical study site and were randomized to 1 of 2 treatment sequences. […] In each period, a standardized breakfast was provided to subjects prior to administration of study drug (to compare the PK profiles in the clinically relevant fed state) and plasma samples were collected over a 48-hour period after dosing for evaluation of PK. Dosing between the 2 periods was separated by a minimum of 7 days. Subjects completed the study upon completion of the 48-hour post-dose assessments following dosing period 2.
# All capsules were identical in size, shape, and external color.
# [4] = humans, cited from earlier work
# [5] = Phase 1 food effect study Part 2 (Cohort 5), single 500 mg dose fed vs fasted; format: in vivo, human; conditions: LYT-100 @500 mg single dose
# Protocol: The comparison will be based on Day 1, Day 2 and Day 3 PK plasma samples after the first dose of study drug on Day 1 under fast and fed conditions of Part 2.
# Subjects will be admitted to the CRU on Day-1 and will fast overnight for at least 10 h.
# [6] = Phase 1 multiple ascending dose (MAD) study Part 1, healthy volunteers (PK and safety); conditions: for Average ratio to the parent (M/P) by AUC: range in brackets
# Protocol: Up to 5 dosing cohorts are planned in Part 1.
# Additional cohorts and intermediate doses may be selected in lieu of predefined doses as noted and in accordance with safety and tolerability responses, but doses will not exceed 1000 mg BID or a total daily dose of 2000 mg.
# A standardised lunch will be served ≥4 h post breakfast and ≥4 h prior to dinner. An evening snack will be served ≥3 h following evening study medication administration. No additional fluids will be allowed during the 1 h pre- and post-doses. On Day 6, subjects will replicate mealtimes as scheduled on Day 1-5.
# Plasma PK parameters (non-compartmental or compartmental analysis as appropriate) will include, but are not limited to: • Following single dose: Tmax, tlag, Cmax, AUC0-4, AUC0-last, t1/2, AUC0-inf, lambda z, %AUCext, CL/F, Vz/F, Cmax/D, AUC0-last/D, AUC0-inf/D and MRT (D is dose) • After repeated doses: Ctrough, Ctrough/D • Following repeated doses on last day: Tmax, Cmax, Cavg, tlag, t1/2, AUC0-4, AUC0-last; AUC0-inf, lambda z, %AUCext, CLss/F, Vzss/F, MRT, PTF, Rac(AUC), Rac(Cmax), Cmax/D, AUClast/D, AUC0-inf/D and Rae (accumulation ratio).
# [7] = rats dosed with SD-560, Groups 2 to 4, general statement
# [8] = Treatment = LYT-100, single 801 mg oral dose
# [9] = Treatment = LYT-100, single 801 mg oral dose, n = 24 (LYT-110 n = 23)
# [10] = Treatment = Pirfenidone, single 801 mg oral dose
# [11] = Treatment = Pirfenidone, single 801 mg oral dose, n = 24 (LYT-111 n = 19)
# [12] = after LYT-100 801 mg, metabolite/LYT-100
# [13] = after LYT-100 801 mg, metabolite/LYT-100, molecular weight corrected
# [14] = after Pirfenidone (LYT-101) 801 mg, metabolite/LYT-101
# [15] = after Pirfenidone (LYT-101) 801 mg, metabolite/LYT-101, molecular weight corrected
smiles,measurement,setting,value
"O=C(O)c1ccc(=O)n(-c2ccccc2)c1 [LYT-105, 5-carboxy-pirfenidone]",observed Cmax,[1],1476
same,"Ratio of exposure (AUC), Group 4 (LYT-100 at 750 mg/kg) analyte / Group 5 (SD-559 at 750 mg/kg) analyte","[2]; Day 1, Female rats",0.49
same,"Ratio of exposure (AUC), Group 4 (LYT-100 at 750 mg/kg) analyte / Group 5 (SD-559 at 750 mg/kg) analyte","[2]; Day 1, Male rats",0.45
same,"Ratio of exposure (AUC), Group 4 (LYT-100 at 750 mg/kg) analyte / Group 5 (SD-559 at 750 mg/kg) analyte","[2]; Day 28, Female rats",0.71
same,"Ratio of exposure (AUC), Group 4 (LYT-100 at 750 mg/kg) analyte / Group 5 (SD-559 at 750 mg/kg) analyte","[2]; Day 28, Male rats",0.57
same,Cmax in rat relative to human,[2]; male rat Day 1 vs human,~9 fold
same,Exposure in rats relative to humans after 28 days of daily dosing,[2]; male rat Day 28 vs human,~7 fold
same,Exposure (AUC) in rat relative to human,[2]; male rats 750 mg/kg Day 1 vs human single 801 mg dose,about 8 fold
same,Dose proportionality of AUC0-24 over 250 to 750 mg/kg,[2]; [7],dose proportional
same,Dose proportionality of Cmax over 250 to 750 mg/kg,[2]; [7],approximately dose proportional
same,Lower Cmax and exposure of SD-789 after SD-560 than of SD-789 after SD-559,"[2]; rats, 750 mg/kg each",approximately 50%
same,"Cmax (ng/mL), Mean",[3]; [8],3970 ng/mL
same,"AUC0-t (hr*ng/mL), Mean",[3]; [8],23090 ng·h/mL
same,"tmax (hr), Median",[3]; [8],2.50 h
same,"% AUC extrap, Mean",[3]; [9],1.13%
same,"AUC(inf) (hr*ng/mL), Mean",[3]; [9],23350 ng·h/mL
same,"Kel (1/hr), Mean",[3]; [9],0.262 h⁻¹
same,"t1/2 (hr), Mean",[3]; [9],2.91 h
same,"Cmax (ng/mL), Mean",[3]; [10],5241 ng/mL
same,"AUC0-t (hr*ng/mL), Mean",[3]; [10],26932 ng·h/mL
same,"tmax (hr), Median",[3]; [10],3.00 h
same,"% AUC extrap, Mean",[3]; [11],0.843%
same,"AUC(inf) (hr*ng/mL), Mean",[3]; [11],27159 ng·h/mL
same,"Kel (1/hr), Mean",[3]; [11],0.288 h⁻¹
same,"t1/2 (hr), Mean",[3]; [11],2.55 h
same,"Metabolite/Parent Ratio, AUC0-∞, Median",[3]; [12],32.3%
same,"Metabolite/Parent Ratio, Cmax, Median",[3]; [12],33.5%
same,"Metabolite/Parent Ratio, AUC0-∞, Mean",[3]; [13],43.8%
same,"Metabolite/Parent Ratio, Cmax, Mean",[3]; [13],43.3%
same,"Metabolite/Parent Ratio, AUC0-∞, Mean","[3]; after LYT-100 801 mg, metabolite/LYT-100, molecular weight corrected, listed as 5-carboxy-pirfenidone",43.8%
same,"Metabolite/Parent Ratio, AUC0-∞, Median",[3]; [14],53.7%
same,"Metabolite/Parent Ratio, Cmax, Median",[3]; [14],57.5%
same,"Metabolite/Parent Ratio, AUC0-∞, Mean",[3]; [15],65.9%
same,"Metabolite/Parent Ratio, Cmax, Mean",[3]; [15],68.1%
same,"Metabolite/Parent Ratio, AUC0-∞, Mean","[3]; after Pirfenidone (LYT-101) 801 mg, metabolite/LYT-101, molecular weight corrected, listed as 5-carboxy-pirfenidone",65.9%
same,Reduction of AUC after LYT-100 relative to pirfenidone,[3]; single 801 mg dose each,approximately 15%
same,Reduction of Cmax after LYT-100 relative to pirfenidone,[3]; single 801 mg dose each,~25%
same,Plasma exposure as percent of the exposure to pirfenidone,[4]; Huang 2013,approximately 50%
same,Share of recovered drug material excreted as this metabolite,"[4]; urine, after oral pirfenidone",> 95%
same,"AUC, % Change Fed vs Fasted",[5],−5%
same,"Cmax, % Change Fed vs Fasted",[5],−1.7%
same,"Tmax, % Change Fed vs Fasted",[5],+33%
same,Accumulation ratios (AUC96-108/AUC0-12) across all dose groups,"[6]; 100 mg, 250 mg, 500 mg, and 750 mg BID, Cohorts 1-4, FIG. 19",~1
same,Dose dependence of AUC96-108 across all dose Cohorts,"[6]; 100 to 1000 mg BID, FIG. 25",linear dose proportionality
same,Average ratio to the parent (M/P) by AUC,"[6]; Cohort 4, 750 mg BID",0.45 (0.37-0.50)
same,Average ratio to the parent (M/P) by AUC,"[6]; Cohort 6, 1000 mg BID",0.56 (0.44-0.66)
same,observed Cmax,[6]; LYT-100 100 mg BID with food,567 ng/mL
same,% difference (vs. 200 mg SD-559) Cmax,"[6]; LYT-100 100 mg vs Huang et al. data extrapolated assuming dose proportionality, LYT-100 vs SD-559, SD-789 vs SD-789",−23%
same,observed Cmax,[6]; LYT-100 250 mg BID with food,1170 ng/mL
same,% difference (vs. 200 mg SD-559) Cmax,[6]; LYT-100 250 mg vs Huang et al. data extrapolated assuming dose proportionality,−37%
same,observed Cmax,[6]; LYT-100 500 mg BID with food,2360 ng/mL
same,% difference (vs. 200 mg SD-559) Cmax,[6]; LYT-100 500 mg vs Huang et al. data extrapolated assuming dose proportionality,−36%
same,observed Cmax,[6]; LYT-100 750 mg BID with food,3370 ng/mL
same,% difference (vs. 200 mg SD-559) Cmax,[6]; LYT-100 750 mg vs Huang et al. data extrapolated assuming dose proportionality,−39%
same,observed Cmax,[6]; LYT-100 1000 mg BID with food,4940 ng/mL
same,% difference (vs. 200 mg SD-559) Cmax,[6]; LYT-100 1000 mg vs Huang et al. data extrapolated assuming dose proportionality,−33%
same,Average ratio of metabolite to the parent (mtp) by AUC,"[6]; MAD study, all doses",0.45
